Source: patent US6287834A, “Characterization and use of an isolated uridine diphospho-glucuronosyltransferase” (Endorecherche, Inc., priority 1999, dated 2001)

T1: UGT2B17 (Homo sapiens, UniProt O75795)
T1 construct: cell homogenate
T1 sequence (O75795 24-530): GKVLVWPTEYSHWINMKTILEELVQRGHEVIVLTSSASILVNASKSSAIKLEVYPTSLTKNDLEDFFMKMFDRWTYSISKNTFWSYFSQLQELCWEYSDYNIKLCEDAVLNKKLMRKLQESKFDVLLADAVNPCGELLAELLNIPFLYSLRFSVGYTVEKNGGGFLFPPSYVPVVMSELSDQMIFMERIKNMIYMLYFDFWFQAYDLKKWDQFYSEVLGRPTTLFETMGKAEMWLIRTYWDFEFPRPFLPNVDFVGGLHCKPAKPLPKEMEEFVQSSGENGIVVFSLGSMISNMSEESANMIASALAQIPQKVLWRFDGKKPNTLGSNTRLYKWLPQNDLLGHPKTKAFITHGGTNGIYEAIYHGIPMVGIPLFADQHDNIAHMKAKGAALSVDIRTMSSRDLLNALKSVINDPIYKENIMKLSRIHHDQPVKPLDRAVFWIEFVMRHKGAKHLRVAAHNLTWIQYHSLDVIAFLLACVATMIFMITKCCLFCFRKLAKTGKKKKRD

B1: uridine diphospho-glucuronosyltransferase 2B17 (protein)
chain: MSLKWMSVFLLMQLSCYFSSGSCGKVLVWPTEYSHWINMKTILEELVQRGHEVIVLTSSASILVNASKSSAIKLEVYPTSLTKNDLEDFFMKMFDRWTYSISKNTFWSYFSQLQELCWEYSDYNIKLCEDAVLNKKLMRKLQESKFDVLLADAVNPCGELLAELLNIPFLYSLRFSVGYTVEKNGGGFLFPPSYVPVVMSELSDQMIFMERIKNMIYMLYFDFWFQAYDLKKWDQFYSEVLGRPTTLFETMGKAEMWLIRTYWDFEFPRPFLPNVDFVGGLHCKPAKPLPKEMEEFVQSSGENGIVVFSLGSMISNMSEESANMIASALAQIPQKVLWRFDGKKPNTLGSNTRLYKWLPQNDLLGHPKTKAFITHGGTNGIYEAIYHGIPMVGIPLFADQHDNIAHMKAKGAALSVDIRTMSSRDLLNALKSVINDPIYKENIMKLSRIHHDQPVKPLDRAVFWIEFVMRHKGAKHLRVAAHNLTWIQYHSLDVIAFLLACVATMIFMITKCCLFCFRKLAKTGKKKKRD
B2: UGT2B17 (Homo sapiens) (protein)
chain: T1 sequence (O75795 24-530)

Experiments:
UGT2B17 [1] = molecular target: T1, UGT2B17; assay: Second glucuronidation assay to determine the amount of enzyme activity (glucuronide formation); assay type: biochemical; conditions: for Glucuronide Formation (pmol/min/mg protein): HK293-UGT2B17 cell homogenate, 6 μM [14C]UDPGA and 494 μM unlabelled UDPGA, 15 minutes at 30° C.; for identified as major endogenous substrates of UGT2B17: 3α and 17β hydroxyandrogens
Description: Stable Expression of UGT2B17. Human kidney 293 cells were grown in Dubelcco's modified Eagle's medium containing 4.5 g/l glucose, 10 mM HEPES, 110 μg/ml sodium pyruvate, 100 IU of penicillin/ml, 100 μg/ml of streptomycin and 10% fetal bovine serum (FBS) in a humidified incubator, with an atmosphere of 5% CO2, at 37° C. 5 μg of pBK-CMV-UGT2B17 was used to transfect HK293 cells using Lipofectin and following the manufacturer's instructions (Gibco BRL: Burlington, Canada). Forty-eight hours after transfection, stable transfectants were selected in a media containing 800 μg/ml G418.
Glucuronidation Assay Using Cell Homogenates. HK293 cells expressing UGT2B17 were suspended in a Tris buffered saline containing 0.5 mM DTT and were homogenized using a Brinkman polytron. Enzyme assays were performed using [^14 C] UDP-glucuronic acid ([…]), 500 μM of the various aglycones and 150 μg of protein from cell homogenates in 50 mM Tris-HCl (pH 7.5), 10 mM MgCl2, 100 μg/ml phosphatidylcholine and 8.5 mM saccharolactone in a final volume of 100 μl. The enzyme assays were terminated by adding 100 μl of methanol, and the tubes were centrifuged at 14,000 g for 1 minute to remove the precipitated proteins. 100 μl of the aqueous phase was applied onto thin layer chromatography (TLC) plates (0.25 mm thick silica gel, 60 F254 S) (EM Science, Gibbstown, N.J.) and then was chromatographed in a solvent of toluene:methanol:acetic acid in the proportion of 7:3:1. The TLC plates were exposed for four days and the extent of glucuronidation was measured by Phosphorimager (Molecular Dynamics).
In the second assay, the substrate was exposed to […]

UGT2B17 [2] = molecular target: T1, UGT2B17; assay: Kinetic analysis of UGT2B17 specificity (Lineweaver-Burk plots, FIGS. 4A and 4B); assay type: biochemical
Description: to FIGS. 4A and 4B are Lineweaver-Burk plots of ADT and DHT, and 3α-DIOL and testosterone (TESTO), respectively; and
A kinetic analysis was also performed to further characterize the specificity of UGT2B17 for ADT, DHT, 3α-DIOL and testosterone.

[3] = tested on: androgen response element reporter in LNCaP cells; assay: Androgen response element reporter construct in LNCaP cells transfected with UGT2B17; assay type: cell-based, human
Description: Reducing androgen activity with UGT2B17. LNCaP cells were transfected with UGT2B17 in the presence of a reporter construct controlled by an androgen response element so as the expression of the reporter gene is indicative of androgenic activity.

[4] = substrate: O=C(O)[C@H]1O[C@H](OP(=O)(O)OP(=O)(O)OC[C@H]2O[C@@H](n3ccc(=O)[nH]c3=O)[C@H](O)[C@@H]2O)[C@H](O)[C@@H](O)[C@@H]1O; assay: cells, lysate or membranes; conditions: other: 30° C., reaction linear for 30 minutes, pH 7.5

Molecule	Glucuronide Formation (pmol/min/mg protein) (UGT2B17 [1])	identified as major endogenous substrates of UGT2B17 (UGT2B17 [1])	further results
C[C@]12CC[C@@H](O)C[C@@H]1CC[C@@H]1[C@@H]2[C@H](O)C[C@]2(C)[C@@H](O)CC[C@@H]12 [5α-Androstane-3α,11α,17β-triol]	5	–	–
C[C@]12CC[C@@H](O)C[C@@H]1CC[C@@H]1[C@@H]2[C@@H](O)C[C@]2(C)[C@@H](O)CC[C@@H]12 [5α-Androstane-3α,11β,17β-triol]	8	–	–
C[C@]12CC[C@@H](O)C[C@@H]1CC[C@@H]1[C@@H]2CC[C@]2(C)[C@@H](O)CC[C@@H]12 [5α-Androstane-3α,17β-diol]	15	major endogenous substrates	affinity of the enzyme based on Km values (UGT2B17 [2]): similar
C[C@]12CC[C@H](O)C[C@@H]1CC[C@@H]1[C@@H]2CC[C@]2(C)[C@@H](O)CC[C@@H]12 [5α-Androstane-3β,17β-diol]	–	major endogenous substrates	–
C[C@H](O)[C@H]1CC[C@H]2[C@@H]3CC[C@H]4C[C@H](O)CC[C@]4(C)[C@H]3CC[C@]12C [5α-pregnane-3α,20α-diol]	8	–	–
C[C@]12CC[C@@H](O)C[C@H]1CC[C@@H]1[C@@H]2CC[C@]2(C)[C@@H](O)[C@H](O)C[C@@H]12 [5β-Androstane-3α,16α,17β-triol]	11	–	–
C[C@]12CC[C@@H](O)C[C@H]1CC[C@@H]1[C@@H]2CC[C@]2(C)[C@@H](O)CC[C@@H]12 [5β-Androstane-3α,17β-diol]	14	–	–
C[C@]12CC[C@H]3[C@@H](CC=C4C[C@@H](O)CC[C@@]43C)[C@@H]1CC[C@@H]2O [Androst-5-ene-3β,17β-diol]	–	major endogenous substrates	–
C[C@]12CC[C@@H](O)C[C@@H]1CC[C@@H]1[C@@H]2CC[C@]2(C)C(=O)CC[C@@H]12 [Androsterone]	5	major endogenous substrates	affinity of the enzyme based on Km values (UGT2B17 [2]): similar
C[C@]12CCC(=O)C[C@@H]1CC[C@@H]1[C@@H]2CC[C@]2(C)[C@@H](O)CC[C@@H]12 [Dihydrotestosterone]	14	major endogenous substrates	affinity of the enzyme based on Km values (UGT2B17 [2]): similar
C[C@]12CC[C@@H](O)C[C@H]1CC[C@@H]1[C@@H]2CC[C@]2(C)C(=O)CC[C@@H]12 [Etiocholanolone]	13	–	–
C=CCc1ccc(O)c(OC)c1 [Eugenol]	38	–	–
C[C@]12CC[C@H]3[C@@H](CCC4=CC(=O)CC[C@@]43C)[C@@H]1CC[C@@H]2O [Testosterone]	9	major endogenous substrates	affinity of the enzyme based on Km values (UGT2B17 [2]): similar
Oc1cccc2ccccc12 [l-naphtol]	7	–	–
Oc1ccccc1-c1ccccc1O [o,o' biphenyl]	7	–	–
Oc1ccc(-c2ccc(O)cc2)cc1 [p,p' biphenyl]	5	–	–
O=[N+]([O-])c1ccc(O)cc1 [p-nitrophenol]	4	–	–
B1	–	–	expression of the reporter gene (indicative of androgenic activity) [3]: decreased expression of the reporter gene
B2	–	–	Km [4]: 200 µM
